Biological target: HIV-1 protease (Human immunodeficiency virus, UniProt O90785)
Test: Inhibition Assay
Details: pH 5.6; 37 °C
From the text: Inhibition of HIV-protease activity for selected acids at P3-P3' positions.

Sequence of HIV-1 protease (O90785 whole entry): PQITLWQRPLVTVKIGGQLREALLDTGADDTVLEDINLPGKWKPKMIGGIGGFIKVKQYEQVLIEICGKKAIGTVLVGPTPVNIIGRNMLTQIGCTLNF

Row | SMILES | IC50 [nM] | Ki [nM]
1 | CC(C)[C@H](NC(=O)c1ccc(C(=O)c2ccccc2)o1)C(=O)N[C@@H](Cc1ccccc1)[C@@H](O)[C@H](O)[C@H](Cc1ccccc1)NC(=O)[C@@H](NC(=O)c1ccc(C(=O)c2ccccc2)o1)C(C)C [P3-P3' Entry 13] | 10 | –
2 | CC(C)[C@H](NC(=O)c1ccc2ccccc2n1)C(=O)N[C@@H](Cc1ccccc1)[C@@H](O)[C@H](O)[C@H](Cc1ccccc1)NC(=O)[C@@H](NC(=O)c1ccc2ccccc2n1)C(C)C [P3-P3' Entry 6] | 10 | –
3 | CC(C)[C@H](NC(=O)c1ccc(CN2CCCCC2)o1)C(=O)N[C@@H](Cc1ccccc1)[C@@H](O)[C@H](O)[C@H](Cc1ccccc1)NC(=O)[C@@H](NC(=O)c1ccc(CN2CCCCC2)o1)C(C)C [P3-P3' Entry 14] | > 50 | –
4 | CC(C)[C@H](NC(=O)CCc1c[nH]c2ccccc12)C(=O)N[C@@H](Cc1ccccc1)[C@@H](O)[C@H](O)[C@H](Cc1ccccc1)NC(=O)[C@@H](NC(=O)CCc1c[nH]c2ccccc12)C(C)C [P3-P3' Entry 2] | 10 | –
5 | CC(C)[C@H](NC(=O)OCc1ccccc1)C(=O)N[C@@H](Cc1ccccc1)[C@@H](O)[C@H](O)[C@H](Cc1ccccc1)NC(=O)[C@@H](NC(=O)OCc1ccccc1)C(C)C | – | 1.5
6 | CC(C)[C@H](NC(=O)c1ccc(-c2cc(C(F)(F)F)ccc2Cl)o1)C(=O)N[C@@H](Cc1ccccc1)[C@@H](O)[C@H](O)[C@H](Cc1ccccc1)NC(=O)[C@@H](NC(=O)c1ccc(-c2cc(C(F)(F)F)ccc2Cl)o1)C(C)C [P3-P3' Entry 11] | > 50 | –
7 | CCC(C)[C@H](NC(=O)c1ccc2cccc(O)c2n1)C(=O)N[C@@H](Cc1ccccc1)[C@@H](O)[C@H](O)[C@H](Cc1ccccc1)NC(=O)[C@@H](NC(=O)c1ccc2cccc(O)c2n1)C(C)C (stereo partly drawn) [P3-P3' Entry 5] | > 50 | –
8 | CC(C)[C@H](NC(=O)c1ccc(-c2ccc([N+](=O)[O-])cc2[N+](=O)[O-])o1)C(=O)N[C@@H](Cc1ccccc1)[C@@H](O)[C@H](O)[C@H](Cc1ccccc1)NC(=O)[C@@H](NC(=O)c1ccc(-c2ccc([N+](=O)[O-])cc2[N+](=O)[O-])o1)C(C)C [P3-P3' Entry 12] | 10 | –
9 | CC(C)[C@H](NC(=O)c1ccc(CN2CCOCC2)o1)C(=O)N[C@@H](Cc1ccccc1)[C@@H](O)[C@H](O)[C@H](Cc1ccccc1)NC(=O)[C@@H](NC(=O)c1ccc(CN2CCOCC2)o1)C(C)C [P3-P3' Entry 15] | > 50 | –

Continued, values first:

Row | IC50 [nM] | Ki [nM] | SMILES
10 | 19 | – | CC(C)[C@H](NC(=O)c1cc(O)c2ccccc2n1)C(=O)N[C@@H](Cc1ccccc1)[C@@H](O)[C@H](O)[C@H](Cc1ccccc1)NC(=O)[C@@H](NC(=O)c1cc(O)c2ccccc2n1)C(C)C [P3-P3' Entry 4]
11 | 6 | 2 | CC(C)[C@H](NC(=O)c1ccc(-c2ccc([N+](=O)[O-])cc2)o1)C(=O)N[C@@H](Cc1ccccc1)[C@@H](O)[C@H](O)[C@H](Cc1ccccc1)NC(=O)[C@@H](NC(=O)c1ccc(-c2ccc([N+](=O)[O-])cc2)o1)C(C)C [P3-P3' Entry 8]
12 | > 50 | – | CC(C)[C@H](NC(=O)c1ccc(-c2c(Cl)cc([N+](=O)[O-])cc2Cl)o1)C(=O)N[C@@H](Cc1ccccc1)[C@@H](O)[C@H](O)[C@H](Cc1ccccc1)NC(=O)[C@@H](NC(=O)c1ccc(-c2c(Cl)cc([N+](=O)[O-])cc2Cl)o1)C(C)C [P3-P3' Entry 10]
13 | 20 | – | CC(C)[C@H](NC(=O)c1ccc([N+](=O)[O-])o1)C(=O)N[C@@H](Cc1ccccc1)[C@@H](O)[C@H](O)[C@H](Cc1ccccc1)NC(=O)[C@@H](NC(=O)c1ccc([N+](=O)[O-])o1)C(C)C [P3-P3' Entry 9]
14 | 17 | – | CC(C)[C@H](NC(=O)Cc1c[nH]c2ccccc12)C(=O)N[C@@H](Cc1ccccc1)[C@@H](O)[C@H](O)[C@H](Cc1ccccc1)NC(=O)[C@@H](NC(=O)Cc1c[nH]c2ccccc12)C(C)C [P3-P3' Entry 1]
15 | 10 | – | CC(C)[C@H](NC(=O)c1ccc(-c2ccc(Cl)cc2)o1)C(=O)N[C@@H](Cc1ccccc1)[C@@H](O)[C@H](O)[C@H](Cc1ccccc1)NC(=O)[C@@H](NC(=O)c1ccc(-c2ccc(Cl)cc2)o1)C(C)C [P3-P3' Entry 16]
16 | 14 | – | CC(C)[C@H](NC(=O)CCCc1c[nH]c2ccccc12)C(=O)N[C@@H](Cc1ccccc1)[C@@H](O)[C@H](O)[C@H](Cc1ccccc1)NC(=O)[C@@H](NC(=O)CCCc1c[nH]c2ccccc12)C(C)C [P3-P3' Entry 3]
17 | 10 | – | CC(C)[C@H](NC(=O)COc1ccc2ccccc2c1)C(=O)N[C@@H](Cc1ccccc1)[C@@H](O)[C@H](O)[C@H](Cc1ccccc1)NC(=O)[C@@H](NC(=O)COc1ccc2ccccc2c1)C(C)C [P3-P3' Entry 7]
